From patent US10052306B2 (LUC THERAPEUTICS, INC., priority 2013, dated 2018) come the findings set out here.

Read-outs that look alike come from different tables or passages of the source. A value given as a limit tells only on which side of the number the result lay.

What is called IC50 is the concentration at which inhibition is half-maximal.

For assay [1], the target named is NR1/NR2B (Homo sapiens (Human), UniProt Q05586+Q13224). The experiment in a line: Cell assay: FDSS Ca2+ influx inhibition in HEK293 cells expressing NR1/NR2B.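 Further: Fluo-8 Ca2+ signal read on Hamamatsu FDSS 6000 after glutamate, glycine and Ca2+ challenge following 10 min compound preincubation, end/baseline fluorescence ratio compared with MK801 control.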 Conditions: Binned Activity.
Sequence of NR1/NR2B (Homo sapiens (Human), UniProt Q05586+Q13224) (Q13224 27-1484, other chains not shown): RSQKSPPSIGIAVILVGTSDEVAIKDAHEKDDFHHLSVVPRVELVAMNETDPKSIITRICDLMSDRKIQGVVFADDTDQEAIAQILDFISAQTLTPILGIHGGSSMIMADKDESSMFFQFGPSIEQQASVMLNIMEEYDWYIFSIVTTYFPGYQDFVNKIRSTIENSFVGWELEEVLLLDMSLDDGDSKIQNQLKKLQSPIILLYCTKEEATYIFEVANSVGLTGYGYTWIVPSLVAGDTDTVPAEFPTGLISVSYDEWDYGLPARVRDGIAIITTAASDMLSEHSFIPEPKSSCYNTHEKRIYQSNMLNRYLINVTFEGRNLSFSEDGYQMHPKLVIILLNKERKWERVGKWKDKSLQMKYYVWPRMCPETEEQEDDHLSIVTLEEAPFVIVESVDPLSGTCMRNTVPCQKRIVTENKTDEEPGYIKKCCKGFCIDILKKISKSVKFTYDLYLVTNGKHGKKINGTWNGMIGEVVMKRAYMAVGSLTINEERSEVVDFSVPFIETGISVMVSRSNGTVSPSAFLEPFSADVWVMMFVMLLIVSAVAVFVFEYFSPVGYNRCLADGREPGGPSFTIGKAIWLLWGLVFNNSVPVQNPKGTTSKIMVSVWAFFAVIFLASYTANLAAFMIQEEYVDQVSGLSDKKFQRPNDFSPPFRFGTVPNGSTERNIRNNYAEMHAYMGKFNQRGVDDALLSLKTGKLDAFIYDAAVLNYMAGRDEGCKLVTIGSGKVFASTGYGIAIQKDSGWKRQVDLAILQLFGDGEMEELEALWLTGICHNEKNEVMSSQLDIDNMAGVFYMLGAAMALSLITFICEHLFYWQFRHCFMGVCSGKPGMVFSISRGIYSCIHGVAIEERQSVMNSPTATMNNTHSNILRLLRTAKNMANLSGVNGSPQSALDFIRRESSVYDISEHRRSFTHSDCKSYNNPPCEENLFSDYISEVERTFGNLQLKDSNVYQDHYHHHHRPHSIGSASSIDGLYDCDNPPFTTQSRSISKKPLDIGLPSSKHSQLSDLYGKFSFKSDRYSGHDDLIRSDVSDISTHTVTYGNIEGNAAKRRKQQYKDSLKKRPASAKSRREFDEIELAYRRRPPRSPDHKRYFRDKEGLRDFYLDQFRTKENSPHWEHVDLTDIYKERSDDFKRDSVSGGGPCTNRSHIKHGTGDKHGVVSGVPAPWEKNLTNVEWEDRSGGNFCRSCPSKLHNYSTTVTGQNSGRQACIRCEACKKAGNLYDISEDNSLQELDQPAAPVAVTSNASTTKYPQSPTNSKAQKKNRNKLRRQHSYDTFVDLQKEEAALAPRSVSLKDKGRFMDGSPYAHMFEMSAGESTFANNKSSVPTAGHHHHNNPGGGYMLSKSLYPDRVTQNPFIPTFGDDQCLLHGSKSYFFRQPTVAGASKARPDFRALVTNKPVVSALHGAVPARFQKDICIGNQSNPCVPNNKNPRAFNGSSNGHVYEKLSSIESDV
In assay [2] the target is NR1/NR2B (Homo sapiens (Human), UniProt Q13224). Described as above. The following applies: read-out: NR2B NAM IC50.
Sequence of NR1/NR2B (Homo sapiens (Human), UniProt Q13224) (Q13224 27-1484, other chains not shown): as above
Setting [3] is: HEK293 cells expressing NR1/NR2B, Ca2+ influx, binned NR2B NAM IC50.
Setting [4] is: HEK293 cells expressing NR1/NR2B, Ca2+ influx.

For `O=C(Nc1ccccc1)N1C[C@H]2C[C@@H](c3ccccc3)C[C@H]2C1` [Example 102, N,5-diphenyl-octahydrocyclopenta[c] pyrrole-2-carboxamide], the IC50 was over 10 µM at NR1/NR2B [1] (setting [3]) and 10 µM on NR1/NR2B [2] (setting [4]).

With `O=C(CN1C[C@@H]2C[C@@](O)(Cc3ccccc3)C[C@@H]2C1)c1cccc(-c2cccnc2)c1` [Example 272, 2-((3aR,5r,6aS)-5-benzyl-5-hydroxyhexahydrocyclo-penta[c]pyrrol-2(1H)-yl)-1-(3-(pyridin-3-yl)phenyl)ethanone], the IC50 against NR1/NR2B [1] (setting [3]) was over 10 µM; at NR1/NR2B [2] (setting [4]), 10 µM.

For `O=C(Cc1ccc(O)cc1)CN1C[C@@H]2C[C@@](O)(Cc3ccccc3)C[C@@H]2C1` [Example 145, 1-((3aR,5r,6aS)-5-benzyl-5-hydroxyhexahydrocyclo-penta[c]pyrrol-2(1H)-yl)-3-(4-hydroxyphenyl)propan-2-one], the IC50 was over 10 µM against NR1/NR2B [1] (setting [3]) and 10 µM on NR1/NR2B [2] (setting [4]).

In the case of `Oc1ccc([C@H](O)CN2C[C@@H]3C[C@](F)(Cc4ccccc4)C[C@@H]3C2)cc1` [Example 315, 4-((S)-2-((3aR,5R,6aS)-5-benzyl-5-fluoro-hexahydrocyclopen-ta[c]pyrrol-2(1H)-yl)-1-hydroxyethyl)phenol], the IC50 against NR1/NR2B [1] (setting [3]) was 0.1 to 1 µM; at NR1/NR2B [2] (setting [4]) it was 0.324 µM.

Consider `COc1cccc(-c2ccc(C(=O)CN3C[C@@H]4C[C@@](O)(Cc5ccccc5)C[C@@H]4C3)cc2)c1` [Example 265, 2-((3aR,5r,6aS)-5-benzyl-5-hydroxyhexahydrocyclo-penta[c]pyrrol-2(1H)-yl)-1-(3′-methoxy-[1,1′-biphenyl]-4-yl)ethanone], for which the concentration for half-maximal inhibition (IC50) at NR1/NR2B [1] (setting [3]) was over 10 µM; on NR1/NR2B [2] (setting [4]), 10 µM.

Turning to `O=C(Nc1ccc(Cl)c(C(F)(F)F)c1)N1C[C@@H]2C[C@@](O)(Cc3ccccc3)C[C@@H]2C1` [Example 120, (3aR,5r,6aS)-5-benzyl-N-(4-chloro-3-(trifluoromethyl)phenyl)-5-hydroxyhexahydrocyclo-penta[c]pyrrole-2(1H)-carboxamide], the results for the IC50 at NR1/NR2B [1] (setting [3]) and at NR1/NR2B [2] (setting [4]) were over 10 µM and 10 µM, respectively.

`O=C(CN1C[C@@H]2C[C@@](O)(Cc3ccccc3)C[C@@H]2C1)c1ccc2[nH]nnc2c1` [Example 167, 2-[(3aR,5R,6aS)-5-benzyl-5-hydroxy-octahydrocyclopenta[c]pyrrol-2-yl]-1-(1H-1,2,3-benzotriazol-5-yl)ethan-1-one]: the results for the IC50 at NR1/NR2B [1] (setting [3]) and at NR1/NR2B [2] (setting [4]) were over 10 µM and 10 µM, respectively.

For `COc1ccc(C(=O)CN2C[C@@H]3C[C@@](O)(Cc4ccccc4)C[C@@H]3C2)cn1` [Example 161, 2-((3aR,5r,6aS)-5-benzyl-5-hydroxyhexahydrocyclo-penta[c]pyrrol-2(1H)-yl)-1-(6-methoxypyridin-3-yl)ethanone], the values for the IC50 against NR1/NR2B [1] (setting [3]) and on NR1/NR2B [2] (setting [4]) were over 10 µM and 10 µM, respectively.

Turning to `O=C(CN1C[C@@H]2C[C@](F)(Cc3ccccc3)C[C@@H]2C1)c1ccc(O)cc1` [Example 310, 2-((3aR,5s,6aS)-5-benzyl-5-fluorohexahydrocyclo-penta[c]pyrrol-2(1H)-yl)-1-(4-hydroxyphenyl)ethanone], the IC50 was 0.1 to 1 µM at NR1/NR2B [1] (setting [3]) and 0.175 µM on NR1/NR2B [2] (setting [4]).

For `O=C(CN1C[C@@H]2C[C@@](O)(CC3CCCCC3)C[C@@H]2C1)c1ccc(O)cn1` [Example 206, 2-[(3aR,5R,6aS)-5-(cyclohexylmethyl)-5-hydroxy-octahydrocyclopenta[c]pyrrol-2-yl]-1-(5-hydroxypyridin-2-yl)ethan-1-one], the IC50 against NR1/NR2B [1] (setting [3]) was over 10 µM; on NR1/NR2B [2] (setting [4]), 10 µM.

As for `CC(C)(O)c1ccc(C(=O)CN2C[C@@H]3C[C@@](O)(Cc4ccccc4)C[C@@H]3C2)cc1` [Example 138, 2-((3aR,5r,6aS)-5-benzyl-5-hydroxyhexahydrocyclo-penta[c]pyrrol-2(1H)-yl)-1-(4-(2-hydroxypropan-2-yl)phenyl)ethanone], the IC50 on NR1/NR2B [1] (setting [3]) was over 10 µM; at NR1/NR2B [2] (setting [4]), 10 µM.

As to `O=C(CN1C[C@@H]2C[C@@](O)(Cc3ccccc3)C[C@@H]2C1)c1ccc(O)cn1` [Example 140, 2-((3aR,5r,6S)-5-benzyl-5-hydroxyhexahydrocyclo-penta[c]pyrrol-2(1H)-yl)-1-(5-hydroxypyridin-2-yl)ethanone], the IC50 at NR1/NR2B [1] (setting [3]) was 1 to 10 µM; on NR1/NR2B [2] (setting [4]) it was 6.94 µM.

On to `O=C(Nc1cccc(Cl)c1)N1C[C@@H]2C[C@@](O)(Cc3ccccc3)C[C@@H]2C1` [Example 118, (3aR,5r,6aS)-5-benzyl-N-(3-chlorophenyl)-5-hydroxyhexahydrocyclo-penta[c]pyrrole-2(1H)-carboxamide], for which the IC50 is over 10 µM on NR1/NR2B [1] (setting [3]) and 10 µM on NR1/NR2B [2] (setting [4]).

With `O=C(CN1C[C@@H]2C[C@@](O)(Cc3ccccc3F)C[C@@H]2C1)c1ccc(O)cn1` [Example 221, 2-(5-(2-fluorobenzyl)-5-hydroxyhexahydrocyclo-penta[c]pyrrol-2(1H)-yl)-1-(5-hydroxypyridin-2-yl)ethanone], the IC50 was 0.1 to 1 µM at NR1/NR2B [1] (setting [3]) and 0.998 µM on NR1/NR2B [2] (setting [4]).

For `O=C(CN1C[C@@H]2C[C@@](O)(Cc3ccccc3)C[C@@H]2C1)c1ccc(O)c(F)n1` [Example 190, 2-((3aR,5r,6aS)-5-benzyl-5-hydroxyhexahydrocyclo-penta[c]pyrrol-2(1H)-yl)-1-(6-fluoro-5-hydroxypyridin-2-yl)ethanone], the IC50 against NR1/NR2B [1] (setting [3]) is over 10 µM; at NR1/NR2B [2] (setting [4]), 10 µM.

Regarding `COc1cccc(NC(=O)N2C[C@H]3C[C@@H](c4ccccc4)C[C@H]3C2)c1` [Example 104, N-(3-methoxyphenyl)-5-phenyl-octahydrocyclopenta[c] pyrrole-2-carboxamide], the IC50 is over 10 µM against NR1/NR2B [1] (setting [3]) and 10 µM at NR1/NR2B [2] (setting [4]).

Turning to `Cc1ccccc1C[C@]1(O)C[C@H]2CN(CC(=O)c3ccc(O)cc3)C[C@H]2C1` [Example 183, 2-((3aR,5r,6aS)-5-hydroxy-5-(2-methylbenzyl)hexahydro-cyclopenta[c]pyrrol-2(1H)-yl)-1-(4-hydroxyphenyl)ethanone], the IC50 was 0.1 to 1 µM against NR1/NR2B [1] (setting [3]) and 0.145 µM at NR1/NR2B [2] (setting [4]).

On to `O=C(Nc1ccc(F)cc1F)N1C[C@@H]2C[C@@](O)(c3ccccc3)C[C@@H]2C1` [Example 19, N-(2,4-difluorophenyl)-5-hydroxy-5-phenyl-octahydrocyclopenta[c] pyrrole-2-carboxamide], for which the IC50 was over 10 µM against NR1/NR2B [1] (setting [3]) and 10 µM at NR1/NR2B [2] (setting [4]).

For the compound `N#Cc1cccc(NC(=O)N2C[C@@H]3C[C@@](O)(c4ccccc4)C[C@@H]3C2)c1` [Example 26, N-(3-cyanophenyl)-5-hydroxy-5-phenyl-octahydrocyclopenta[c] pyrrole-2-carboxmaide], the IC50 was over 10 µM on NR1/NR2B [1] (setting [3]) and 10 µM on NR1/NR2B [2] (setting [4]).

Consider `CO[C@@]1(Cc2ccccc2)C[C@H]2CN(CC(=O)c3ccc(O)cc3)C[C@H]2C1` [Example 174, 2-((3aR,5r,6aS)-5-benzyl-5-methoxyhexahydrocyclo-penta[c]pyrrol-2(1H)-yl)-1-(4-hydroxyphenyl)ethanone], for which the IC50 was under 0.1 µM against NR1/NR2B [1] (setting [3]) and 0.0572 µM on NR1/NR2B [2] (setting [4]).

Regarding `O=C(CN1C[C@@H]2C[C@@](O)(Cc3ccc(C(F)(F)F)cc3)C[C@@H]2C1)c1ccc(O)cc1` [Example 219, 2-[(3aR,5R,6aS)-5-hydroxy-5-{[4-(trifluoromethyl)phenyl]methyl}-octahydrocyclopenta[c]pyrrol-2-yl]-1-(4-hydroxyphenyl)ethan-1-one], the figures for the IC50 on NR1/NR2B [1] (setting [3]) and at NR1/NR2B [2] (setting [4]) were 0.1 to 1 µM and 0.125 µM, respectively.

For `Oc1ccc([C@H](O)CN2C[C@@H]3C[C@@](O)(Cc4ccccc4)C[C@@H]3C2)cc1` [Example 137, (3aR,5S,6aS)-5-benzyl-2-((S)-2-hydroxy-2-(4-hydroxyphenyl)ethyl)octa-hydrocyclopenta[c]pyrrol-5-ol], the IC50 was under 0.1 µM against NR1/NR2B [1] (setting [3]) and 0.0204 µM at NR1/NR2B [2] (setting [4]).

`O=C(CN1C[C@H]2C[C@@H](CCc3ccccc3)C[C@H]2C1)c1ccc(O)cc1` [Example 324, 1-(4-hydroxyphenyl)-2-((3aR,5r,6aS)-5-phenethylhexa-hydrocyclo-penta[c]pyrrol-2(1H)-yl)ethanone]: the IC50 was 0.1 to 1 µM on NR1/NR2B [1] (setting [3]) and 0.215 µM at NR1/NR2B [2] (setting [4]).

As for `O=C(CN1C[C@@H]2C[C@@](O)(c3ccccc3)C[C@@H]2C1)c1cccc(F)c1` [Example 61, 1-(3-fluorophenyl)-2-{5-hydroxy-5-phenyl-octahydrocyclopenta[c]pyrrol-2-yl}ethan-1-one], the IC50 against NR1/NR2B [1] (setting [3]) is over 10 µM; at NR1/NR2B [2] (setting [4]) it was 10 µM.

Take `O=C(Nc1ccc(Cl)c(C(F)(F)F)c1)N1C[C@H]2C[C@@H](c3ccccc3)C[C@H]2C1` [Example 108, N-[4-chloro-3-(trifluoromethyl)phenyl]-5-phenyl-octahydrocyclopenta[c] pyrrole-2-carboxamide]: the results for the half-maximal inhibitory concentration (IC50) against NR1/NR2B [1] (setting [3]) and at NR1/NR2B [2] (setting [4]) were over 10 µM and 10 µM, respectively.

For `O=C(COc1ccc(C(=O)CN2C[C@@H]3C[C@@](O)(Cc4ccccc4)C[C@@H]3C2)cc1F)c1ccc(O)c(F)c1` [Example 172, 2-((3aR,5r,6aS)-5-benzyl-5-hydroxyhexahydrocyclo-penta[c]pyrrol-2(1H)-yl)-1-(3-fluoro-4-(2-(3-fluoro-4-hydroxyphenyl)-2-oxoethoxy)phenyl)ethanone], the IC50 is over 10 µM on NR1/NR2B [1] (setting [3]) and 10 µM on NR1/NR2B [2] (setting [4]).

Turning to `Cc1cccc(-c2ccc(C(=O)CN3C[C@@H]4C[C@@](O)(CCc5ccccc5)C[C@@H]4C3)cc2)c1` [Example 277], the IC50 at NR1/NR2B [1] (setting [3]) is over 10 µM; at NR1/NR2B [2] (setting [4]), 10 µM.

Turning to `COc1ccc(C)cc1NC(=O)N1C[C@@H]2C[C@@](O)(c3ccccc3)C[C@@H]2C1` [Example 27, 5-hydroxy-N-(2-methoxy-5-methylphenyl)-5-phenyl-octahydrocyclopenta[c] pyrrole-2-carboxamide], the IC50 at NR1/NR2B [1] was over 10 µM; on NR1/NR2B [2] it was 10 µM.
